Results reported in patent US9745288B2, “Compounds and methods for treating cancer by inhibiting the urokinase receptor” (Indiana University Research and Technology Corporation, priority 2011, dated 2017).
Entries after “also recorded” stand apart in the source; their conditions may differ. Like-named read-outs stand apart in the source and are kept apart here.

Legend:
[1] = system: MDA-MB-231 cells; assay: Apoptosis assay, flow cytometry with Annexin V-FITC and PI staining; type: cell-based, human; settings: 50 μM
Method: Apoptosis Assay. MDA-MB-231 cells were cultured in DMEM medium supplemented with 10% FBS, 100 IU/mL penicillin and 50 μg/mL streptomycin in a humidified atmosphere containing 5% CO2 at 37° C. and grew to 80-90% confluence in P-60 mm plates, then treated with various amounts of compounds or 1% DMSO (as control) for different time points. Collected the supernatants and washed the cells with 1×PBS twice and collected. The cells were detached by using cellstripper (Mediatech Inc, VA), and washed twice with cold 1× PBS and resuspended in 1× binding buffer (Cat. PNN1001, Invitrogen Corporation, Camarillo, Calif.) at a concentration of 1×10^6 cells/mL. Transferred 100 μL of the solution (1×10^5 cells) to a 5 mL culture tube. Added 5 μL of Recombinant Human Annexin V FITC conjugate (Cat. ANNEXINV01, Invitrogen) and 5 μL of propidium iodide solution (Cat. P4864, Sigma-Aldrich, St. Louis, Mo.). Gently vortexed the cells and incubated for 15 min at room (25° C.) in the dark. Added 400 μL of 1× binding buffer to each tube. Analyzed by flow cytometry (FACScan).
(§1) FIGS. 4A-4D show inhibition of MDA-MB-231 proliferation and mechanism of cell killing. To gain insight into the mechanism by which these compounds are inhibiting growth, a flow cytometry analysis with annexin V-FITC and PI staining was performed. The level of apoptotic cells in MDA-MB-231 was assessed by the percentage of Annexin V-positive/PI-negative cells present after exposure of MDAMB-231 cells to increasing concentration of IPR-69 for 24 h (FIG. 4B). At a concentration of 50 μM, IPR-69 induced significant apoptosis as evidenced by a 51% and 21% increase in apoptotic cells (Annexin V positive/PI-negative) and necrotic cells (Annexin V-positive/PI-positive), respectively. […] At a concentration of 50 μM, 26% of cells were necrotic (Annexin V positive/PI-positive), a 22% increase over control. 46% of cells were apoptotic (Annexin V positive/PInegative), compared with 4% of control.

[2] = system: MDA-MB-231 cells; assay: MTT proliferation assay; type: cell-based, human; settings: read-out: IC50 of cell proliferation (MTT)
Method: Proliferation Assay. The procedure consisted of culturing cells at 37° C. in 10% FBS-DMEM medium containing various amounts of compound. 5 mM compound stock in 100% DMSO was 1:50 diluted in medium, filtered, and serially diluted in 96-well plate. Then seeded cells were incubated for 3 days. Viable cells were quantified by MTT assay at absorbance of 570 and 630 nm.
as §1

[3] = molecular target: T1, uPAR (Homo sapiens, UniProt Q03405); assay: Fluorescence polarization assay, displacement of AE147-FAM peptide from uPAR; type: binding
T1 construct: human uPAR (suPAR, amino acids 1-283) was expressed in stably transfected Drosophila S2 cells; made in house; host or cells: Drosophila S2 cells
T1 sequence (Q03405 23-305): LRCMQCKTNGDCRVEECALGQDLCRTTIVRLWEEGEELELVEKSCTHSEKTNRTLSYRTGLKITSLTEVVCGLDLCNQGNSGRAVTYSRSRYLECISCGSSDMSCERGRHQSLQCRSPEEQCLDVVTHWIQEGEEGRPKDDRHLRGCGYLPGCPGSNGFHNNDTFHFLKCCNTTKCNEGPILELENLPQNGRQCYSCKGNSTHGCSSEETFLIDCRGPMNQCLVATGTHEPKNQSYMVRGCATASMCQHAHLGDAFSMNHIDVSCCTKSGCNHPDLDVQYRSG
Method: Fluorescence Polarization Assay. The fluorescence polarization assay used fluorescent AE147-FAM peptide. uPAR was titrated against the fluorescent AE147-FAM peptide and data were fit to a sigmoidal dose-dependent curve as the FP value increases to determine the Kd of binding using Sigmaplot (Systat Software Inc., CA). Inhibitor screens were carried out in triplicates using 500 nM uPAR, 100 nM AE147-FAM, and inhibitor concentrations ranging from 0.78 μM to 100 μM in 50 μL volumes in black BD Falcon 384-well microplate. […] Polarized fluorescence intensities were measured immediately following addition of inhibitors to the protein-peptide mix at room temperature on an EnVision® Multilabel Plate Readers (PerkinElmer) with excitation and emission wavelengths of 485 nm and 530 nm, respectively.
Cloning, Expression and Purification of uPAR. uPAR was successfully cloned, expressed and purified. From 1 L of culture, nearly 12 mg of protein was expressed, which will be sufficient to conduct the experiments disclosed herein. Briefly, a truncated, soluble form of human uPAR (suPAR, amino acids 1-283) was expressed in stably transfected Drosophila S2 cells using the Drosophila Expression System (Invitrogen). suPAR was obtained by a two-step purification process. The conditioned culture medium was filtered (0.45 μm) and loaded onto a DEAE Sephadex column equilibrated with 20 mM Tris (pH 7.4). The protein was eluted with a gradient of 0-1 M NaCl in 20 mM Tris (pH 7.4). suPAR containing fractions were then pooled, concentrated, and filtered prior to RP-HPLC using a semi-preparative (10×25 cm) C8 column. A 1 mL aliquot of the concentrated protein was loaded onto the column at initial gradient conditions of 95% eluent A and 5% eluent B, where eluent A was 0.1% TFA/100% H2O and eluent B was 70:30 acetonitrile/[…]. The protein elutes using a gradient of 5% eluent A to 95% eluent B over 46 minutes at a flow rate of 4 mL/min. Under these conditions, the protein eluted as a single sharp peak (tR=29 min). […] Surface plasmon resonance confirmed that the purified uPAR was capable of binding to uPA. The identity of the 60 kDa band was established by immunoblot (not shown).
The design of a fluorescent probe was guided by the three-dimensional structure of uPAR in complex with peptide AE147.^27 As this peptide binds at the same site that is occupied by the growth factor-like domain of uPA, it provides the basis for the development of a competition assay to assess binding to this site. Flurescein was introduced to the N-terminus of AE147.
All 210 compounds were screened at initial concentration of 50 μM for displacement of AE147-FAM peptide. Eleven compounds gave polarization readings that were five times that of the standard deviation of the control peptide (FIG. 1B). Secondary concentration-dependent study for these eleven compounds was performed.
The resulting inhibition curves were used to determine an inhibition constant, Ki, for each.

[4] = system: salmon sperm DNA; assay: Fluorescent Intercalator Displacement assay (ethidium bromide); type: binding; design: displacement of ethidium bromide: dose or concentration left out as unconfirmed; settings: for displacement of ethidium bromide: […] μM; for DNA binding: three concentrations tested
Method: Finally, DNA binding by these three compounds was assessed. DNA binding is often a reflection of non-specificity, which can lead to adverse side effects. The well-established Fluorescent Intercalator Displacement assay by Tse et al.^43 that measures displacement of ethidium bromide, a known intercalator of DNA was used. In this assay, ethidium bromide (EB) bound to the salmon sperm DNA.

[5] = system: human umbilical vein endothelial cells (HUVEC); assay: Matrigel-based tube formation (angiogenesis) assay; type: cell-based; settings: HUVEC in Matrigel
[6] = Homo sapiens, MDA-MB-231, MDA-MB-231

SMILES	increase in necrotic cells (Annexin V-positive/PI-positive) [1]	apoptotic cells (Annexin V positive/PI-negative) ([1]; percent of cells)	necrotic cells (Annexin V positive/PI-positive) ([1]; percent of cells)	IC50 [2, 6]	IC50 ([3]; Table 1, assay not stated)	Ki ([3]; Table 1, assay not stated, read-out: Ki)	displacement of ethidium bromide [4]	DNA binding [4]	IC50 [5]	increase in apoptotic cells (Annexin V positive/PI-negative) ([1]; 24 h)	IC50 ([2]; MDA-MB-231)	Ki ([3]; from concentration-dependent inhibition curves, read-out: inhibition constant, Ki)
CN(C)c1ccc(CNCCC(Cc2ccccc2)c2ccc3c(c2)OCO3)cc1 (racemic) [IPR-9, 4-(((3-(benzo[d][1,3]dioxol-5-yl)-4-phenylbutyl)amino)methyl)-N,Ndimethylaniline]	22%	46%	26%	6 µM	24.4 µM	7.4 µM	30%	not strongly affected	3 µM			
Cc1cc(C)cc(NC(=O)c2cnn(-c3ccc(C(C)C)cc3)c2C2CCNCC2)c1 [IPR-69, N-(3,5-dimethylphenyl)-1-(4-isopropylphenyl)-5-(piperidin-4-yl)-1H-pyrazole-4-carboxamide]	21%			18 µM			less than 10%	not strongly affected; also recorded: no DNA binding	3 µM	51%	17 µM	30 µM
